Data published in patent US20230234942A1, “COMPOUNDS FOR TREATING HUNTINGTON'S DISEASE” (PTC Therapeutics, Inc., priority 2020, published 2023).

Test system: Endogenous Huntingtin Protein
Experiment: Endogenous Huntingtin Protein Assay (ELISA-based MSD electrochemiluminescence)
Format: cell-based
Conditions: Table 2; MSD plates coated with MW1 (expanded polyglutamine) or MAB2166 capture antibody; "inactive" = result above the detection limit of the assay
Experimental: Compounds of Formula (I) were tested using the Meso Scale Discovery (MSD) Assay provided in International Application No. PCT/US2016/066042, filed on Dec. 11, 2016 and claiming priority to U.S. Provisional Application 62/265,652 filed on Dec. 10, 2015, the entire contents of which are incorporated herein by reference.
The Endogenous Huntingtin Protein assay used in Biological Example 1 was developed using the ELISA-based MSD electrochemiluminescence assay platform.
Meso Scale Discovery (MSD) 96-well or 384-well plates were coated overnight at 4° C. with MW1 (expanded polyglutamine) or MAB2166 monoclonal antibody (for capture) at a concentration of 1 μg/mL in PBS (30 μL per well). Plates were then washed three times with 300 μL wash buffer (0.05% Tween-20 in PBS) and blocked (100 μL blocking buffer; 5% BSA in PBS) for 4-5 hours at room temperature with rotational shaking and then washed three times with wash buffer.
Samples (25 μL) were transferred to the antibody-coated MSD plate and incubated overnight at 4° C. After removal of the lysates, the plate was washed three times with wash buffer, and 25 μL of #56565 (Cell signaling; rabbit monoclonal) secondary antibody (diluted to 0.25 μg/mL in 0.05% Tween-20 in blocking buffer) was added to each well and incubated with shaking for 1 Hour at room temperature. Following incubation with the secondary antibody, the wells were rinsed with wash buffer after which 25 μL of goat anti-rabbit SULFO TAG secondary detection antibody (required aspect of the MSD system) (diluted to 0.25 μg/mL in 0.05% Tween-20 in blocking buffer) was added to each well and incubated with shaking for 1 hour at room temperature. After rinsing three times with wash buffer, 150 μL of read buffer T with surfactant (MSD) were added to each empty well, and the plate was imaged on a SI 6000 imager (MSD) according to manufacturers' instructions provided for 96- or 384-well plates.

Row | SMILES | IC50 [µM]
1 | COc1cc(-c2ccc(-c3cnc(N4C[C@@H](C5CC5)N[C@@H](C)C4)nn3)c(O)c2)ncn1 [Cpd 226, 2-{3-[(3R,5S)-3-cyclopropyl-5-methylpiperazin-1-yl]-1,2,4-triazin-6-yl}-5-(6-methoxypyrimidin-4-yl)phenol] | 0.13
2 | Oc1cc(-c2cn[nH]c2)ccc1-c1cnc(N2CCNC(C3CCC3)C2)nn1 (centres unmarked) [Cpd 30, 2-[3-(3-cyclobutylpiperazin-1-yl)-1,2,4-triazin-6-yl]-5-(1H-pyrazol-4-yl)phenol] | 0.0333
3 | CC(C)[C@H]1CN(c2ncc(-c3ccc(-c4ccc5nncn5c4)cc3O)nn2)CCN1 [Cpd 115, 2-{3-[(3S)-3-(propan-2-yl)piperazin-1-yl]-1,2,4-triazin-6-yl}-5-([1,2,4]triazolo[4,3-a]pyridin-6-yl)phenol] | 0.179
4 | Cc1cnc(-c2ccc(-c3cnc(N4CCN[C@@H](C(C)C)C4)nn3)c(O)c2)cn1 [Cpd 145, 5-(5-methylpyrazin-2-yl)-2-{3-[(3S)-3-(propan-2-yl)piperazin-1-yl]-1,2,4-triazin-6-yl}phenol] | 0.48
5 | Cn1nc2cc(-c3ccc(-c4cnc(N5CCN[C@H](C6(C)CC6)C5)nn4)c(O)c3)cnc2n1 [Cpd 242, 2-{3-[(3R)-3-(1-methylcyclopropyl)piperazin-1-yl]-1,2,4-triazin-6-yl}-5-(2-methyl-2H-[1,2,3]triazolo[4,5-b]pyridin-6-yl)phenol] | 0.106
6 | CC(C)[C@@H]1CN(c2ncc(-c3ccc(-c4cn[nH]c4F)cc3O)nn2)C[C@H](C)N1 [Cpd 217, 5-(5-fluoro-1H-pyrazol-4-yl)-2-{3-[(3S,5R)-3-methyl-5-(propan-2-yl)piperazin-1-yl]-1,2,4-triazin-6-yl]phenol] | 0.0679
7 | CC(C)[C@H]1CN(c2ncc(-c3ccc(-c4cn5ncnc5cn4)cc3O)nn2)CCN1 [Cpd 128, 2-{3-[(3S)-3-(propan-2-yl)piperazin-1-yl]-1,2,4-triazin-6-yl}-5-([1,2,4]triazolo[1,5-a]pyrazin-6-yl)phenol] | 0.0267
8 | CC(C)[C@H]1CN(c2ncc(-c3ccc(-c4cnn5c4OCCC5)cc3O)nn2)CCN1 [Cpd 282, 5-(6,7-dihydro-5H-pyrazolo[5,1-b][1,3]oxazin-3-yl)-2-{3-[(3S)-3-(propan-2-yl)piperazin-1-yl]-1,2,4-triazin-6-yl}phenol] | 0.131

Compounds with a lower IC50, results first:

Row | IC50 [µM] | SMILES
9 | 0.0208 | Cn1cc(-c2ccc(-c3cnc(N4CCN[C@@H](C(C)(C)C)C4)nn3)c(O)c2)cn1 [Cpd 21, 2-{3-[(3S)-3-tert-butylpiperazin-1-yl]-1,2,4-triazin-6-yl]-5-(1-methyl-1H-pyrazol-4-yl)phenol]
10 | 0.0182 | CC(C)[C@H]1CN(c2ncc(-c3ccc(-c4cn[nH]c4)cc3O)nn2)C[C@@H](C)N1 [Cpd 229, 2-{3-[(3R,5S)-3-methyl-5-(propan-2-yl)piperazin-1-yl]-1,2,4-triazin-6-yl}-5-(1H-pyrazol-4-yl)phenol]
11 | 0.0115 | Cc1nc(-c2ccc(-c3cnc(N4CCN[C@@H](C5CC5)C4)nn3)c(O)c2)ns1 [Cpd 245, 2-{3-[(3S)-3-cyclopropylpiperazin-1-yl]-1,2,4-triazin-6-yl}-5-(5-methyl-1,2,4-thiadiazol-3-yl)phenol]
12 | 0.0096 | Oc1cc(-n2nccn2)ccc1-c1cnc(N2CCN[C@@H](C3CC3)C2)nn1 [Cpd 11, 2-{3-[(3S)-3-cyclopropylpiperazin-1-yl]-1,2,4-triazin-6-yl}-5-(2H-1,2,3-triazol-2-yl)phenol]
13 | 0.006 | Oc1cc(-c2cn[nH]c2)ccc1-c1cnc(N2CCNC(C3CC3)C2)nn1 (centres unmarked) [Cpd 5, 2-[3-(3-cyclopropylpiperazin-1-yl)-1,2,4-triazin-6-yl]-5-(1H-pyrazol-4-yl)phenol]
14 | 0.0045 | CC1([C@H]2CN(c3ncc(-c4ccc(-c5cnn6c5CCC6)cc4O)nn3)CCN2)CC1 [Cpd 280, 5-(5,6-dihydro-4H-pyrrolo[1,2-b]pyrazol-3-yl)-2-{3-[(3S)-3-(1-methylcyclopropyl)piperazin-1-yl]-1,2,4-triazin-6-yl}phenol]
